Test results taken from patent publication US11912718B2, “Solid forms of a thienopyrimidinedione ACC inhibitor and methods for production thereof” (Gilead Apollo, LLC, priority 2016, dated 2024).
pIC50: −log10 of the molar value. ≈ marks a conversion by molar mass, not a printed value.

Columns and labels:
ACC1 [1] = details: enzyme isolated from rat, mouse, monkey and human; cited from earlier work
ACC2 = details: enzyme isolated from rat, mouse, monkey and human; cited from earlier work
[2] = Dynamic vapor sorption (DVS); type: physicochemical; details: for state or form of the material after the DVS experiment: post DVS, XRPD
From the text: For DVS analysis as discussed in Example 8, approximately 10 milligrams of sample was placed into a mesh vapor sorption balance pan and loaded into a DVS-1 dynamic vapor sorption balance (Surface Measurement Systems). The sample was subjected to a ramping profile from 0-90% relative humidity (RH) at 10% increments, maintaining the sample at each step until a stable weight had been achieved (99.5% step completion). After completion of the sorption cycle, the sample was dried using the reverse procedure, lowering the RH to 0%. The weight change during the sorption/desorption cycles was plotted.
For Examples 2, 5, 7, 9, and 13 to 18, hygroscopicity was studied using dynamic vapor sorption (DVS, TA Q5000 SA, TA Instruments, New Castle, Del. or DVS, DVS Intrinsic, Surface Measurement Systems, London, UK). A sample (2-20 mg) was placed in an aluminum DVS pan and loaded on the sample side of the twin pan balance. The water sorption and desorption were studied as a function of relative humidity (RH) at 25° C. In 10% RH increments, the relative humidity was increased from 5% RH to 95% RH and then decreased back to 5%. […] Data analysis was performed using Universal Analysis 2000 Version 4.7A (TA Instruments, New Castle, Del.) for TA DVS runs and Microsoft Excel for SMS DVS runs.

[3] = Competitive slurrying of crystal forms; type: physicochemical
Aqueous solubility = type: physicochemical
Protocol: Purity and concentration analyses were carried out using the following method: […]

[4] = Log P and Log D determination (potentiometric); type: physicochemical; details: octanol/water, pH 7.4
Protocol: Log P analysis was performed using a potentiometric (pH-metric) method. The sample was titrated in various ratios of octanol/water in two titrations covering the pH range from 1.9 to 12.0 at concentrations of 1.0 to 0.6 mM. The shift of the aqueous pKa in the presence of octanol was used to determine log P of the neutral and anionic species. From this information a lipophilicity profile was constructed, such that that log D at a given pH could be determined.

[5] = Prolonged exposure to water (XRPD); type: physicochemical
[6] = Storage stability at 40° C. and 75% RH; type: physicochemical; details: 7 days at 40° C. and 75% RH
Protocol: 100 milligrams of Form IV of Compound 1, prepared according to the method of Example 5, was heated to 80° C. in an oven. Form VII was confirmed to be a desolvated form of Form IV, produced by drying the methanol solvate Form IV. […] Differential scanning calorimetry (DSC) results (FIG. 40) were consistent with thermogravimetric analysis. […] (peak at 141.4° C.), with the peak of the exotherm at 151.6° C. […] (peak at 195.0° C.). A smaller endotherm with a peak at 207.0° C. was likely to indicate formation of a higher melting crystalline form. […] The uptake between 40 and 70% RH could potentially be indicative of hydrate formation (tentatively assigned the name Form IX). […] NMR and IR data confirmed the structural integrity of Compound 1 present.

ACC1 [7] = target: ACC1 (Homo sapiens, UniProt Q13085); assay: Inhibition of ACC1 by metabolites of Compound 1; type: biochemical
[8] = acetone, acetonitrile:water (10%), ethanol, ethyl acetate, ambient temperature and 60° C., XRPD and DSC

## O=C(c1c2ccccc2cc2ccccc12)N1CCC(N2CCC[C@@H](C(=O)N3CCOCC3)C2)CC1 [CP-640186]
ACC1 [1]
  pIC50: ~7.22
ACC2
  pIC50: ~7.22

## COc1ccccc1[C@H](Cn1c(=O)n(C(C)(C)C(=O)O)c(=O)c2c(C)c(-c3ncco3)sc21)OC1CCOCC1 [Form I]
[2]; at about 95% RH
  weight gain (moisture sorption): ~0.45%
[2]
  state or form of the material after the DVS experiment: had not changed forms
[3]; between 22-60° C.
  relative thermodynamic stability: more thermodynamically stable form
Aqueous solubility; aqueous medium, aqueous buffer, pH 5.5 and below
  solubility: < 10 µg/mL
[4]
  logD: 1.06

## COc1ccccc1[C@H](Cn1c(=O)n(C(C)(C)C(=O)O)c(=O)c2c(C)c(-c3ncco3)sc21)OC1CCOCC1 [Form VIII]
[3]; 1:1 ratio in 6:4 ethanol:water, room temperature, about two weeks, XRPD
  result of competitive slurrying with Form I: conversion to Form I
[3]; [8]
  result of competitive slurrying with Form I: conversion to Form I

## COc1ccccc1[C@H](Cn1c(=O)n(C(C)(C)C(=O)O)c(=O)c2c(C)c(-c3ncco3)sc21)OC1CCOCC1 [Form VII]
[2]; at 90% RH
  water uptake (DVS): > 4%
[2]
  state or form of the material after the DVS experiment: no change in form
[3]; [8]
  result of competitive slurrying with Form I: conversion to Form I
[5]
  form change on prolonged exposure to water: conversion of Form VII to Form I
Aqueous solubility; water
  solubility: 109 µg/mL (≈ 191 µM)
[6]
  chemical and physical stability on storage: chemically and physically stable
  purity after storage: 99.85%

## COc1ccccc1[C@H](Cn1c(=O)n(C(C)(C)C(=O)OC2OC(C(=O)O)C(O)C(O)C2O)c(=O)c2c(C)c(-c3ncco3)sc21)OC1CCOCC1 (stereo partly drawn) [M+glucuronide conjugate]
ACC1 [7]
  pIC50: 8.30

## Cc1c(-c2ncco2)sc2c1c(=O)n(C(C)(C)C(=O)O)c(=O)n2C[C@H](OC1CCOCC1)c1ccccc1O [M-CH3 metabolite]
ACC1 [7]
  pIC50: 7.66
